# Target: AMPA-R
# Experiment: [3H]AMPA radioligand binding assay on rat brain synaptic membranes;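 further: competition binding in which test compounds at rising concentrations displace [3H]AMPA from AMPA-R on rat brain synaptic membranes, with reduced bound radioligand as read-out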
# Details: for % Inhibition @ Concentration 100 uM: Table 8 (3′-terminal nucleobase/sugar variants); for % Inhibition @ Concentration 0.1 uM: Table 8, 0.1 uM; for % Inhibition @ Concentration 1 uM: Table 8, 1 uM; for % Inhibition @ Concentration 10 uM: Table 8, 10 uM
# Protocol: The activity of anti-miR-17 compounds was evaluated in a radioligand binding assay which measured the binding of the [^3H] AMPA ligand to the AMPA-R present on rat brain synaptic membranes, in the presence of increasing concentrations of anti-miR-17 compound, anti-miR-17 compounds with affinity for the AMPA-R will bind to and compete with the binding of the [^3H] AMPA ligand.
# 5.0 nM of the ligand [^3H] AMPA, 1.0 mM of the non-specific ligand L-Glutamic acid, and anti-miR compound at uM concentrations were incubated with synaptic membranes prepared from Wistar rat cerebral cortex for 90 minutes.
# The compounds were tested in the radioligand binding assay described herein, to determine the ability of the anti-miR-17 compounds to and compete with the binding of the [3H] AMPA ligand.
sequence,measurement,setting,value
ASGSCMAFCFUFUMUSGD [RG-NG-1033],IC50,Table 8,0.13 µM
same,% Inhibition @ Concentration 100 uM,,97.3%
same,% Inhibition @ Concentration 0.1 uM,,44.9%
same,% Inhibition @ Concentration 1 uM,,80.9%
same,% Inhibition @ Concentration 10 uM,,96.5%
ASASGSCMAFCFUFUMUS [RG-NG-1013],IC50,Experiment #2,> 100 µM
same,% Inhibition @ 0.1 uM,"Experiment #2, 0.1 uM",−3.8%
same,% Inhibition @ 1 uM,"Experiment #2, 1 uM",−5.6%
same,% Inhibition @ 10 uM,"Experiment #2, 10 uM",3.7%
same,% Inhibition @ 100 uM,"Experiment #2, 100 uM",37.2%
"TEAFASGSCMAFCFUFUMUSCS (TAAGCACUUUC; 2'-MOE, S-cEt, 2'-F, 2'-OMe modifications; modified_base 1 OTHER; thymine; misc_feature 1..11 Synthetic: RG-NG-1022; modified_base 1..2 OTHER; 2'-O-methoxyethyl nucleoside; modified_base 3..4 OTHER; S-constrained ethyl nucleoside; modified_base 5 OTHER; 2'-O-methyl nucleoside; modified_base 6..8 OTHER; 2'-fluoro nucleoside; modified_base 9 OTHER; modified_base 10..11 OTHER)",IC50,Experiment #3,> 100 µM
same,% Inhibition @ 0.1 uM,"Experiment #3, 0.1 uM",−23.5%
same,% Inhibition @ 1 uM,"Experiment #3, 1 uM",−5.4%
same,% Inhibition @ 10 uM,"Experiment #3, 10 uM",−7%
same,% Inhibition @ 100 uM,"Experiment #3, 100 uM",−10.9%
AFGSCMAFCFUFUMUSGE [RG-NG-1023],IC50,Experiment #3,3.12 µM
same,% Inhibition @ 0.1 uM,"Experiment #3, 0.1 uM",3.1%
same,% Inhibition @ 1 uM,"Experiment #3, 1 uM",25.6%
same,% Inhibition @ 10 uM,"Experiment #3, 10 uM",75.2%
same,% Inhibition @ 100 uM,"Experiment #3, 100 uM",95.3%
ASGSCMAFCFUFUMTEGE [RG-NG-1024],IC50,Experiment #3,> 100 µM
same,% Inhibition @ 0.1 uM,"Experiment #3, 0.1 uM",−17%
same,% Inhibition @ 1 uM,"Experiment #3, 1 uM",−4.7%
same,% Inhibition @ 10 uM,"Experiment #3, 10 uM",6.5%
same,% Inhibition @ 100 uM,"Experiment #3, 100 uM",35.2%
ASGSCMAFCFUFUMUSAM [RG-NG-1038],IC50,Table 8,8.23 µM
same,% Inhibition @ Concentration 100 uM,,81.3%
same,% Inhibition @ Concentration 0.1 uM,,17.9%
same,% Inhibition @ Concentration 1 uM,,25.4%
same,% Inhibition @ Concentration 10 uM,,47.4%
ASGSCMAFCFUFUMUSGM [RG-NG-1034],IC50,Table 8,1.2 µM
same,% Inhibition @ Concentration 100 uM,,99.7%
same,% Inhibition @ Concentration 0.1 uM,,14.3%
same,% Inhibition @ Concentration 1 uM,,44.8%
same,% Inhibition @ Concentration 10 uM,,85.2%
ASGSCMAFCFUFUMUSNM [RG-NG-1036],IC50,Table 8,18.6 µM
same,% Inhibition @ Concentration 100 uM,,78.1%
same,% Inhibition @ Concentration 0.1 uM,,19.2%
same,% Inhibition @ Concentration 1 uM,,11.3%
same,% Inhibition @ Concentration 10 uM,,36.2%
AMAMGLCLALCLUMTLUCM [RG-NG-1030],IC50,Experiment #2,> 100 µM
same,% Inhibition @ 0.1 uM,"Experiment #2, 0.1 uM",2.9%
same,% Inhibition @ 1 uM,"Experiment #2, 1 uM",6.5%
same,% Inhibition @ 10 uM,"Experiment #2, 10 uM",15%
same,% Inhibition @ 100 uM,"Experiment #2, 100 uM",1.9%
ASGLCMAFCFUFUMTLGS [RG-NG-1012],IC50,Experiment #2,2.56 µM
same,% Inhibition @ 0.1 uM,"Experiment #2, 0.1 uM",9.9%
same,% Inhibition @ 1 uM,"Experiment #2, 1 uM",38.5%
same,% Inhibition @ 10 uM,"Experiment #2, 10 uM",69%
same,% Inhibition @ 100 uM,"Experiment #2, 100 uM",88.3%
ASGSCMAFCFUFUMUS [RG-NG-1014],IC50,Experiment #2,> 100 µM
same,% Inhibition @ 0.1 uM,"Experiment #2, 0.1 uM",14.9%
same,% Inhibition @ 1 uM,"Experiment #2, 1 uM",−5.5%
same,% Inhibition @ 10 uM,"Experiment #2, 10 uM",8.6%
same,% Inhibition @ 100 uM,"Experiment #2, 100 uM",20.4%
ASGSCMASCMUSUMUSGS [RG-NG-1003],IC50,Experiment #1,9.26 µM
same,% Inhibition @ 0.1 uM,"Experiment #1, 0.1 uM",5.7%
same,% Inhibition @ 1 uM,"Experiment #1, 1 uM",13.9%
same,% Inhibition @ 10 uM,"Experiment #1, 10 uM",56.9%
same,% Inhibition @ 100 uM,"Experiment #1, 100 uM",77.8%
ASGECMAFCFUFUMTEGS [RG-NG-1008],IC50,Experiment #2,56.6 µM
same,% Inhibition @ 0.1 uM,"Experiment #2, 0.1 uM",−22.4%
same,% Inhibition @ 1 uM,"Experiment #2, 1 uM",13.6%
same,% Inhibition @ 10 uM,"Experiment #2, 10 uM",22.1%
same,% Inhibition @ 100 uM,"Experiment #2, 100 uM",59.6%
ASGSCSAFCFUFUMUSCS [RG-NG-1027],IC50,Experiment #2,> 100 µM
same,% Inhibition @ 0.1 uM,"Experiment #2, 0.1 uM",−2.2%
same,% Inhibition @ 1 uM,"Experiment #2, 1 uM",2.3%
same,% Inhibition @ 10 uM,"Experiment #2, 10 uM",−2.2%
same,% Inhibition @ 100 uM,"Experiment #2, 100 uM",3%
ASGSCSASCSUSUSUS [RG-NG-1002],IC50,Experiment #1,> 100 µM
same,% Inhibition @ 0.1 uM,"Experiment #1, 0.1 uM",0%
same,% Inhibition @ 1 uM,"Experiment #1, 1 uM",−2.0%
same,% Inhibition @ 10 uM,"Experiment #1, 10 uM",−16.9%
same,% Inhibition @ 100 uM,"Experiment #1, 100 uM",24.0%
same,IC50,Experiment #2,> 100 µM
same,% Inhibition @ 0.1 uM,"Experiment #2, 0.1 uM",−5.5%
same,% Inhibition @ 1 uM,"Experiment #2, 1 uM",4.6%
same,% Inhibition @ 10 uM,"Experiment #2, 10 uM",−2.1%
same,% Inhibition @ 100 uM,"Experiment #2, 100 uM",24.6%
AMAMGLCLALCLUMTLUM [RG-NG-1031],IC50,Experiment #2,> 100 µM
same,% Inhibition @ 0.1 uM,"Experiment #2, 0.1 uM",−4.3%
same,% Inhibition @ 1 uM,"Experiment #2, 1 uM",1%
same,% Inhibition @ 10 uM,"Experiment #2, 10 uM",2.7%
same,% Inhibition @ 100 uM,"Experiment #2, 100 uM",16.7%
AEGECMAFCFUFUMTEGE [RG-NG-1009],IC50,Experiment #2,> 100 µM
same,% Inhibition @ 0.1 uM,"Experiment #2, 0.1 uM",−11.8%
same,% Inhibition @ 1 uM,"Experiment #2, 1 uM",2.7%
same,% Inhibition @ 10 uM,"Experiment #2, 10 uM",13%
same,% Inhibition @ 100 uM,"Experiment #2, 100 uM",32.6%
ASGSCMAFCFUFUMUSDM [RG-NG-1037],IC50,Table 8,≥ 100 µM
same,% Inhibition @ Concentration 100 uM,,10.7%
same,% Inhibition @ Concentration 0.1 uM,,11.1%
same,% Inhibition @ Concentration 1 uM,,9.2%
same,% Inhibition @ Concentration 10 uM,,2.4%
